Counter-ions that a name gives are not always drawn.
The molecules below were run against T1, MCH receptor (Homo sapiens, UniProt Q99705) (assay: FLIPR/FDSS6000 functional assay: intracellular Ca2+ changes evoked by MCH). Conditions: antagonist activity, 50 nM of MCH, [Ca2+]i by FLIPR or FDSS; read-out: IC50.
Assay type: cell-based
From the text: Subsequently, a functional based assay was used to confirm the lead hits, referred to as FLIPR™ (the Fluorometric Imaging Plate Reader) and FDSS6000™ (Functional Drug Screening System). This assay utilized a non-endogenous, constitutively active version of the MCH receptor.
The FLIPR and FDSS assays are able to detect intracellular Ca^2+ concentration in cells, which can be utilized to assess receptor activation and determine whether a candidate compound is an, for example, antagonist, inverse agonist or agonist to a Gq-coupled receptor. The concentration of free Ca^2+ in the cytosol of any cell is extremely low, whereas its concentration in the extracellular fluid and endoplasmic reticulum (ER) is very high. Thus, there is a large gradient tending to drive Ca^2+ into the cytosol across both the plasma membrane and ER. The FLIPR™ and FDSS6000™ systems (Molecular Devices Corporation, HAMAMATSU Photonics K.K.) are designed to perform functional cell-based assays, such as the measurement of intracellular calcium for high-throughput screening. The measurement of fluorescent is associated with calcium release upon activation of the Gq-coupled receptors.
Fluorometric Imaging Plate Reader system was used to allow for rapid, kinetic measurements of intracellular fluorescence in 96 well microplates (or 384 well microplates). Simultaneous measurements of fluorescence in all wells can be made by FLIPR or FDSS6000™ every second with high sensitivity and precision. These systems are ideal for measuring cell-based functional assays such as monitoring the intracellular calcium fluxes that occur within seconds after activation of the Gq coupled receptor.
Briefly, the cells are seeded into 96 well at 5.5×10^4 cells/well with complete culture media (Dulbecco's Modified Eagle Medium with 10% fetal bovine serum, 2 mM L-glutamine, 1 mM sodium pyruvate and 0.5 mg/mL G418, pH 7.4) for the assay next day. On the day of assay, the media is removed and the cells are incubated with 100 μl of loading buffer (4 μM Fluo-4-AM in complete culture media containing 2.5 mM Probenicid, 0.5 mg/ml and 0.2% bovine serum albumin) in 5% CO2 incubator at 37° C. for 1 hr. The loading buffer is removed, and the cells are washed with wash buffer (Hank's Balanced Salt Solution containing 2.5 mM Probenicid, 20 mM HEPES, 0.5 mg/mL and 0.2% bovine serum albumin, pH 7.4). One hundred fifty μl of wash buffer containing various concentrations of test compound is added to the cells, and the cells are incubated in 5% CO2 incubator at 37° C. for 30 min. Fifty μl of wash buffer containing various concentration of MCH are added to each well, and transient changes in [Ca^2+]i evoked by MCH are monitored using the FLIPR or FDSS in 96 well plates at Ex. 488 nm and Em. 530 nm for 290 second. When antagonist activity of compound is tested, 50 nM of MCH is used.
Use of FLIPR™ and FDSS6000™ can be accomplished by following manufacturer's instruction (Molecular Device Corporation and HAMAMATSU Photonics K.K.).

T1 sequence (Q99705 whole entry): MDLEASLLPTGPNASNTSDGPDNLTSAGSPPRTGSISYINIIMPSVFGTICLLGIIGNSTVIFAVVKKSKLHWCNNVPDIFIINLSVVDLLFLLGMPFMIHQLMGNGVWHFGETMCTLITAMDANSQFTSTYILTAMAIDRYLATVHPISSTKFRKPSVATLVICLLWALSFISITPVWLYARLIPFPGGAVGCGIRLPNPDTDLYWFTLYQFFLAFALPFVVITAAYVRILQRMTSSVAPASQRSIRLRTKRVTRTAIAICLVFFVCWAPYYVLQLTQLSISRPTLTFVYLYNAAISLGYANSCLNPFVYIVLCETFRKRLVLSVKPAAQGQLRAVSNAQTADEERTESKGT

IC50 [nM] | SMILES
101 | Cc1nc(N[C@H]2CC[C@@H](NC(=O)c3ccc(F)cc3)CC2)cc(N(C)C)n1 [Example 7, N-(cis-4-{[6-(Dimethylamino)-2-methylpyrimidin-4-yl]amino}cyclohexyl)-4-fluorobenzamide hydrochloride]

Same assay, conditions: class by percent of control at 10^−7 M or by IC50; antagonist activity, 50 nM of MCH; read-out: class

IC50 [nM] | SMILES
> 200 | CN(C)c1cc(N[C@H]2CC[C@@H](NCc3ccc(Br)cc3OC(F)(F)F)CC2)ncn1 [Example 1, N′-(cis-4-{[4-Bromo-2-(trifluoromethoxy)benzyl]amino}cyclohexyl)-N,N-dimethylpyrimidine-4,6-diamine dihydrochloride]
50 to 200 | CN(C)c1cc(N[C@H]2CC[C@@H](NC(=O)c3ccc(F)c(F)c3)CC2)ncn1 [Example 2, N-(cis-4-{[6-(1-Dimethylamino)pyrimidin-4-yl]amino}cyclohexyl)-3,4-difluorobenzamide hydrochloride]
> 200 | CN(C)c1cc(NC[C@H]2CC[C@@H](NC(=O)c3ccc(F)c(F)c3)CC2)ncn1 [Example 3, N-[cis-4-({[6-(Dimethylamino)pyrimidin-4-yl]amino}methyl)cyclohexyl]-3,4-difluorobenzamide hydrochloride]
> 200 | CN(C)c1cc(N[C@H]2CC[C@@H](CNC(=O)c3ccc(F)c(F)c3)CC2)ncn1 [Example 4, N-[(cis-4-{[6-(Dimethylamino)pyrimidin-4-yl]amino}cyclohexyl)methyl]-3,4-difluorobenzamide hydrochloride]
< 50 | Cc1nc(N[C@H]2CC[C@@H](NC(=O)c3ccc(F)c(F)c3)CC2)cc(N(C)C)n1 [Example 5, N-(cis-4-{[6-(Dimethylamino)-2-methylpyrimidin-4-yl]amino}cyclohexyl)-3,4-difluorobenzamide hydrochloride]
< 50 | Cc1nc(N[C@H]2CC[C@@H](NC(=O)c3ccc(F)c(Cl)c3)CC2)cc(N(C)C)n1 [Example 6, 3-Chloro-N-(cis-4-{[6-(dimethylamino)-2-methylpyrimidin-4-yl]amino}cyclohexyl)-4-fluorobenzamide hydrochloride]
50 to 200 | Cc1nc(N[C@H]2CC[C@@H](NC(=O)c3ccc(F)cc3)CC2)cc(N(C)C)n1 [Example 7, N-(cis-4-{[6-(Dimethylamino)-2-methylpyrimidin-4-yl]amino}cyclohexyl)-4-fluorobenzamide hydrochloride]
< 50 | Cc1nc(N[C@H]2CC[C@@H](NC(=O)c3ccc(Cl)c(Cl)c3)CC2)cc(N(C)C)n1 [Example 8, 3,4-Dichloro-N-(cis-4-{[6-(dimethylamino)-2-methylpyrimidin-4-yl]amino}cyclohexyl)-benzamide hydrochloride]
50 to 200 | Cc1nc(N[C@H]2CC[C@@H](NC(=O)c3ccc(Cl)c(F)c3)CC2)cc(N(C)C)n1 [Example 9, 4-Chloro-N-(cis-4-{[6-(dimethylamino)-2-methylpyrimidin-4-yl]amino}cyclohexyl)-3-fluorobenzamide hydrochloride]
< 50 | Cc1nc(N[C@H]2CC[C@@H](NC(=O)c3cc(F)cc(Cl)c3)CC2)cc(N(C)C)n1 [Example 10, 3-Chloro-N-(cis-4-{[6-(dimethylamino)-2-methylpyrimidin-4-yl]amino}cyclohexyl)-5-fluorobenzamide hydrochloride]

These molecules were tested against T1, MCH receptor (assay: Receptor binding assay with Radiolabelled MCH Ligand). Conditions: class by percent of control at 10^-7 M or IC50.
Set-up: expressed in transfected cells; host or cells: 293 cells (human kidney, ATCC), transient transfection; crude membranes
How it was run: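 This was a filtration radioligand displacement assay: compounds, first tested at 1 and 0.1 μM and then over a range, inhibited binding of a labelled MCH ligand to transfected 293-cell membranes at room temperature for 60–120 min. Specific binding excluded a cold-MCH nonspecific signal. Ki was derived from IC50 via Cheng-Prusoff, using an independently measured KD.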

SMILES | class
Cc1nc(N[C@H]2CC[C@@H](NS(=O)(=O)c3cccc4ccccc34)CC2)cc(N(C)C)n1 [compound 505] | 3 (Class 3: The value of percent of control at 10^−7 M was more than 60% or the value of IC50 was more than 200 nM.)
CCOC(=O)c1c(S(=O)(=O)N[C@H]2CC[C@@H](Nc3cc(N(C)C)nc(C)n3)CC2)c(-c2ccccc2)n(-c2ccccc2)c1C [compound 506] | 3 (Class 3: The value of percent of control at 10^−7 M was more than 60% or the value of IC50 was more than 200 nM.)
COC(=O)c1ccc(S(=O)(=O)N[C@H]2CC[C@@H](Nc3cc(N(C)C)nc(C)n3)CC2)n1C [compound 507] | 3 (Class 3: The value of percent of control at 10^−7 M was more than 60% or the value of IC50 was more than 200 nM.)
COC(=O)c1cc(S(=O)(=O)N[C@H]2CC[C@@H](Nc3cc(N(C)C)nc(C)n3)CC2)oc1C [compound 508] | 3 (Class 3: The value of percent of control at 10^−7 M was more than 60% or the value of IC50 was more than 200 nM.)
Cc1nc(N[C@H]2CC[C@@H](NS(=O)(=O)c3ccc4c(c3)CN(C(=O)C(F)(F)F)CC4)CC2)cc(N(C)C)n1 [compound 509] | 3 (Class 3: The value of percent of control at 10^−7 M was more than 60% or the value of IC50 was more than 200 nM.)
Cc1nc(N[C@H]2CC[C@@H](NS(=O)(=O)c3ccc(Cc4ncc(C(F)(F)F)cc4Cl)s3)CC2)cc(N(C)C)n1 [compound 510] | 3 (Class 3: The value of percent of control at 10^−7 M was more than 60% or the value of IC50 was more than 200 nM.)
Cc1nc(N[C@H]2CC[C@@H](NS(=O)(=O)c3sc4ccc(Cl)cc4c3C)CC2)cc(N(C)C)n1 [compound 511] | 3 (Class 3: The value of percent of control at 10^−7 M was more than 60% or the value of IC50 was more than 200 nM.)
Cc1nc(N[C@H]2CC[C@@H](NS(=O)(=O)c3c(C)noc3C)CC2)cc(N(C)C)n1 [compound 512] | 3 (Class 3: The value of percent of control at 10^−7 M was more than 60% or the value of IC50 was more than 200 nM.)
Cc1nc(N[C@H]2CC[C@@H](NS(=O)(=O)c3c(C)nn(C)c3C)CC2)cc(N(C)C)n1 [compound 513] | 3 (Class 3: The value of percent of control at 10^−7 M was more than 60% or the value of IC50 was more than 200 nM.)
CCOC(=O)c1c(S(=O)(=O)N[C@H]2CC[C@@H](Nc3cc(N(C)C)nc(C)n3)CC2)c(-c2ccc(Cl)cc2)n(-c2ccccc2)c1C [compound 514] | 3 (Class 3: The value of percent of control at 10^−7 M was more than 60% or the value of IC50 was more than 200 nM.)
Cc1nc(N[C@H]2CC[C@@H](NS(=O)(=O)c3ccc(-c4cc(C(F)(F)F)nn4C)s3)CC2)cc(N(C)C)n1 [compound 515] | 3 (Class 3: The value of percent of control at 10^−7 M was more than 60% or the value of IC50 was more than 200 nM.)
Cc1nc(N[C@H]2CC[C@@H](NS(=O)(=O)c3cccn3-c3ncc(C(F)(F)F)cc3Cl)CC2)cc(N(C)C)n1 [compound 516] | 3 (Class 3: The value of percent of control at 10^−7 M was more than 60% or the value of IC50 was more than 200 nM.)
Cc1nc(N[C@H]2CC[C@@H](NS(=O)(=O)c3ccc(-c4ccon4)s3)CC2)cc(N(C)C)n1 [compound 517] | 3 (Class 3: The value of percent of control at 10^−7 M was more than 60% or the value of IC50 was more than 200 nM.)
COC(=O)c1csc(S(=O)(=O)N[C@H]2CC[C@@H](Nc3cc(N(C)C)nc(C)n3)CC2)c1OC [compound 518] | 3 (Class 3: The value of percent of control at 10^−7 M was more than 60% or the value of IC50 was more than 200 nM.)
Cc1nc(N[C@H]2CC[C@@H](NS(=O)(=O)c3cc(S(=O)(=O)c4ccccc4)cs3)CC2)cc(N(C)C)n1 [compound 519] | 3 (Class 3: The value of percent of control at 10^−7 M was more than 60% or the value of IC50 was more than 200 nM.)
Cc1nc(N[C@H]2CC[C@@H](NS(=O)(=O)c3ccc(Br)s3)CC2)cc(N(C)C)n1 [compound 520] | 3 (Class 3: The value of percent of control at 10^−7 M was more than 60% or the value of IC50 was more than 200 nM.)
Cc1nc(N[C@H]2CC[C@@H](NS(=O)(=O)c3ccc(Cl)c4nonc34)CC2)cc(N(C)C)n1 [compound 521] | 3 (Class 3: The value of percent of control at 10^−7 M was more than 60% or the value of IC50 was more than 200 nM.)
Cc1nc(N[C@H]2CC[C@@H](NS(=O)(=O)c3cccc4cccnc34)CC2)cc(N(C)C)n1 [compound 522] | 3 (Class 3: The value of percent of control at 10^−7 M was more than 60% or the value of IC50 was more than 200 nM.)
